Results from patent US10750743B2, “Pyridazinone herbicides” (E.I. DU PONT DE NEMOURS AND COMPANY, priority 2015, dated 2020).

Key:
Format in all cases: in vivo
[1] = system: ragweed (common ragweed, Ambrosia elatior); assay: Test A preemergence, directed soil spray, visual injury rating; conditions: Ambrosia artemisiifolia, pre-emergence, 240 h, 0 is no effect, 100 is complete control, read-out: Plant response rating (0 to 100 scale), Ragweed; for pest or weed control at 125 g/ha: 125 g ai/ha; for pest or weed control at 500 g/ha: 500 g ai/ha
Summary of the method: (§1)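 Seeds sown in a loam soil–sand blend received a directed preemergence soil spray of test chemical in a non-phytotoxic solvent mixture with surfactant. Postemergence plants were sprayed at 2 to 10 cm, one- to two-leaf stage. After approximately 10 d in greenhouse, injury was visually rated 0 (no effect) to 100 (complete control) against untreated controls.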

[2] = system: barnyardgrass (Echinochloa crus-galli); assay: as above; conditions: Echinochloa crus-galli, pre-emergence, 240 h, 0 is no effect, 100 is complete control, read-out: Plant response rating (0 to 100 scale), Barnyardgrass; for pest or weed control at 125 g/ha: 125 g ai/ha; for pest or weed control at 500 g/ha: 500 g ai/ha
Summary of the method: as §1

[3] = system: ryegrass, It. (Italian ryegrass, Lolium multiflorum); assay: as above; conditions: Lolium multiflorum, pre-emergence, 240 h, 0 is no effect, 100 is complete control, read-out: Plant response rating (0 to 100 scale), Ryegrass, It.; for pest or weed control at 125 g/ha: 125 g ai/ha; for pest or weed control at 500 g/ha: 500 g ai/ha
Summary of the method: as §1

[4] = system: foxtail, giant (giant foxtail, Setaria faberii); assay: as above; conditions: Setaria faberi, pre-emergence, 240 h, 0 is no effect, 100 is complete control, read-out: Plant response rating (0 to 100 scale), Foxtail, Giant; for pest or weed control at 125 g/ha: 125 g ai/ha; for pest or weed control at 500 g/ha: 500 g ai/ha
Summary of the method: as §1

kochia (Kochia scoparia) [5] = assay: as above; conditions: Bassia scoparia, pre-emergence, 240 h, 0 is no effect, 100 is complete control, read-out: Plant response rating (0 to 100 scale), Kochia; for pest or weed control at 125 g/ha: 125 g ai/ha; for pest or weed control at 500 g/ha: 500 g ai/ha
Summary of the method: as §1

[6] = system: pigweed (Amaranthus retroflexus); assay: as above; conditions: Amaranthus retroflexus, pre-emergence, 240 h, 0 is no effect, 100 is complete control, read-out: Plant response rating (0 to 100 scale), Pigweed; for pest or weed control at 125 g/ha: 125 g ai/ha; for pest or weed control at 500 g/ha: 500 g ai/ha
Summary of the method: as §1

[7] = system: ragweed (common ragweed, Ambrosia elatior); assay: Test A postemergence application, visual injury rating; conditions: Ambrosia artemisiifolia, post-emergence, 240 h, 0 to 100 scale, 0 no effect, 100 complete control, read-out: Ragweed plant response rating; for pest or weed control at 125 g/ha: 125 g ai/ha; for pest or weed control at 500 g/ha: 500 g ai/ha
Summary of the method: as §1

[8] = system: barnyardgrass (Echinochloa crus-galli); assay: as above; conditions: Echinochloa crus-galli, post-emergence, 240 h, 0 to 100 scale, 0 no effect, 100 complete control, read-out: Barnyardgrass plant response rating; for pest or weed control at 125 g/ha: 125 g ai/ha; for pest or weed control at 500 g/ha: 500 g ai/ha
Summary of the method: as §1

[9] = system: galium (catchweed bedstraw, Galium aparine); assay: as above; conditions: Galium, post-emergence, 240 h, 0 to 100 scale, 0 no effect, 100 complete control, read-out: Galium plant response rating; for pest or weed control at 125 g/ha: 125 g ai/ha; for pest or weed control at 500 g/ha: 500 g ai/ha
Summary of the method: as §1

corn (Zea mays) = assay: as above; conditions: Zea mays, post-emergence, 240 h, 0 to 100 scale, 0 no effect, 100 complete control, read-out: Corn plant response rating; for plant injury at 125 g/ha: 125 g ai/ha; for plant injury at 500 g/ha: 500 g ai/ha
Summary of the method: as §1

[10] = system: ryegrass, It. (Italian ryegrass, Lolium multiflorum); assay: as above; conditions: Lolium multiflorum, post-emergence, 240 h, 0 to 100 scale, 0 no effect, 100 complete control, read-out: Ryegrass, It. plant response rating; for pest or weed control at 125 g/ha: 125 g ai/ha; for pest or weed control at 500 g/ha: 500 g ai/ha
Summary of the method: as §1

[11] = system: wheat (Triticum aestivum); assay: as above; conditions: Triticum aestivum, post-emergence, 240 h, 0 to 100 scale, 0 no effect, 100 complete control, read-out: Wheat plant response rating; for plant injury at 125 g/ha: 125 g ai/ha; for plant injury at 500 g/ha: 500 g ai/ha
Summary of the method: as §1

[12] = system: blackgrass (Alopecurus myosuroides); assay: as above; conditions: Alopecurus myosuroides, post-emergence, 240 h, 0 to 100 scale, 0 no effect, 100 complete control, read-out: Blackgrass plant response rating; for pest or weed control at 125 g/ha: 125 g ai/ha; for pest or weed control at 500 g/ha: 500 g ai/ha
Summary of the method: as §1

[13] = system: foxtail, giant (giant foxtail, Setaria faberii); assay: as above; conditions: Setaria faberi, post-emergence, 240 h, 0 to 100 scale, 0 no effect, 100 complete control, read-out: Foxtail, Giant plant response rating; for pest or weed control at 125 g/ha: 125 g ai/ha; for pest or weed control at 500 g/ha: 500 g ai/ha
Summary of the method: as §1

kochia (Kochia scoparia) [14] = assay: as above; conditions: Bassia scoparia, post-emergence, 240 h, 0 to 100 scale, 0 no effect, 100 complete control, read-out: Kochia plant response rating; for pest or weed control at 125 g/ha: 125 g ai/ha; for pest or weed control at 500 g/ha: 500 g ai/ha
Summary of the method: as §1

[15] = system: pigweed (Amaranthus retroflexus); assay: as above; conditions: Amaranthus retroflexus, post-emergence, 240 h, 0 to 100 scale, 0 no effect, 100 complete control, read-out: Pigweed plant response rating; for pest or weed control at 125 g/ha: 125 g ai/ha; for pest or weed control at 500 g/ha: 500 g ai/ha
Summary of the method: as §1

[16] = system: barnyardgrass (Echinochloa crus-galli); assay: Test B flooded paddy test, visual rating; conditions: Echinochloa crus-galli, 360 h; Flood, 250 g ai/ha, applied to paddy water, rated after 13 to 15 d; read-out: Barnyardgrass plant response rating (0 to 100 scale, 0 is no effect, 100 is complete control)
Summary of the method: (§2)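 Plants at the 2-leaf stage were flooded to 3 cm above soil, and test compounds were applied directly into the paddy water, which was held at that depth throughout. After 13 to 15 d in a greenhouse, injury was rated visually against untreated controls on a 0–100 scale (0 no effect, 100 complete control).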

[17] = system: ducksalad (Heteranthera limosa); assay: Test B flooded paddy test, visual rating; conditions: Heteranthera limosa, 360 h; Flood, 250 g ai/ha, applied to paddy water, rated after 13 to 15 d; read-out: Ducksalad plant response rating (0 to 100 scale, 0 is no effect, 100 is complete control)
Summary of the method: as §2

rice (Oryza sativa) = assay: Test B flooded paddy test, visual rating; conditions: Oryza sativa, 360 h; Flood, 250 g ai/ha, applied to paddy water, rated after 13 to 15 d; read-out: Rice plant response rating (0 to 100 scale, 0 is no effect, 100 is complete control)
Summary of the method: as §2

Row | Structure (SMILES) | pest or weed control at 125 g/ha [1] [%] | pest or weed control at 500 g/ha [1] [%] | pest or weed control at 125 g/ha [2] [%] | pest or weed control at 500 g/ha [2] [%] | pest or weed control at 125 g/ha [3] [%] | pest or weed control at 500 g/ha [3] [%] | pest or weed control at 125 g/ha [4] [%] | pest or weed control at 500 g/ha [4] [%] | pest or weed control at 125 g/ha (kochia (Kochia scoparia) [5]) [%] | pest or weed control at 500 g/ha (kochia (Kochia scoparia) [5]) [%] | pest or weed control at 125 g/ha [6] [%] | pest or weed control at 500 g/ha [6] [%] | pest or weed control at 125 g/ha [7] [%] | pest or weed control at 500 g/ha [7] [%] | pest or weed control at 125 g/ha [8] [%] | pest or weed control at 500 g/ha [8] [%] | pest or weed control at 125 g/ha [9] [%] | pest or weed control at 500 g/ha [9] [%] | plant injury at 125 g/ha (corn (Zea mays)) [%] | plant injury at 500 g/ha (corn (Zea mays)) [%] | also measured
1 | CCOC(=O)Oc1c(C)nn(C)c(=O)c1-c1c(C)ccc2sccc12 [Compound 30, 1,6-dihydro-1,3-dimethyl-5-(5-methylbenzo[b]thien-4-yl)-6-oxo-4-pyridazinyl ethyl carbonate] | 20 | 90 | 0 | 90 | 90 | 100 | 0 | 80 | 10 | 80 | 90 | 100 | 60 | 90 | 10 | 80 | 90 | 100 | 20 | 40 | pest or weed control at 125 g/ha [10]: 100%; pest or weed control at 500 g/ha [10]: 100%; plant injury at 125 g/ha [11]: 0%; plant injury at 500 g/ha [11]: 30%; pest or weed control at 125 g/ha [12]: 40%; pest or weed control at 500 g/ha [12]: 90%; pest or weed control at 125 g/ha [13]: 10%; pest or weed control at 500 g/ha [13]: 70%; pest or weed control at 125 g/ha (kochia (Kochia scoparia) [14]): 90%; pest or weed control at 500 g/ha (kochia (Kochia scoparia) [14]): 100%; pest or weed control at 125 g/ha [15]: 90%; pest or weed control at 500 g/ha [15]: 90%; pest or weed control at 250 g/ha [16]: 0%; pest or weed control at 250 g/ha [17]: 0%; plant injury at 250 g/ha (rice (Oryza sativa)): 0%
2 | Cc1cc2cccc(-c3c(O)c(C)nn(C)c3=O)c2o1 [Compound 12, 5-hydroxy-2,6-dimethyl-4-(2-methyl-7-benzofuranyl)-3(2H)-pyridazinone] | 60 | 80 | 0 | 50 | 100 | 100 | 10 | 60 | 60 | 100 | 60 | 100 | 40 | 80 | 10 | 30 | 80 | 90 | 0 | 10 | pest or weed control at 125 g/ha [10]: 90%; pest or weed control at 500 g/ha [10]: 100%; plant injury at 125 g/ha [11]: 0%; plant injury at 500 g/ha [11]: 20%; pest or weed control at 125 g/ha [12]: 40%; pest or weed control at 500 g/ha [12]: 80%; pest or weed control at 125 g/ha [13]: 20%; pest or weed control at 500 g/ha [13]: 40%; pest or weed control at 125 g/ha (kochia (Kochia scoparia) [14]): 0%; pest or weed control at 500 g/ha (kochia (Kochia scoparia) [14]): 50%; pest or weed control at 125 g/ha [15]: 30%; pest or weed control at 500 g/ha [15]: 50%; pest or weed control at 250 g/ha [16]: 0%; pest or weed control at 250 g/ha [17]: 0%; plant injury at 250 g/ha (rice (Oryza sativa)): 0%
